Assay results from patent US12077503B2, “Substituted cyclic amides and their use as herbicides” (FMC CORPORATION, priority 2015, dated 2024).

Key:
Format in all cases: in vivo
[1] = test system: barnyardgrass (Echinochloa crus-galli); experiment: Test A preemergence; settings: Echinochloa crus-galli, pre-emergence, 240 h, preemergence, 0 to 100 scale where 0 is no effect and 100 is complete control, read-out: Barnyardgrass plant response rating
In short: (§1)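 Visual injury, scored on a 0–100 scale relative to untreated controls, was recorded about 10 d after application. Treatments were a preemergence soil spray over planted seeds or a postemergence spray on plants at the one- to two-leaf stage, 2 to 10 cm tall, all in loam soil–sand blend in the greenhouse.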

[2] = test system: ragweed (common ragweed, Ambrosia elatior); experiment: Test A preemergence; settings: Ambrosia artemisiifolia, pre-emergence, 240 h, preemergence, 0 to 100 scale where 0 is no effect and 100 is complete control, read-out: Ragweed plant response rating
In short: as §1

Kochia (Kochia scoparia) [3] = experiment: Test A preemergence; settings: Bassia scoparia, pre-emergence, 240 h, preemergence, 0 to 100 scale where 0 is no effect and 100 is complete control, read-out: Kochia plant response rating
In short: as §1

[4] = test system: ryegrass, Italian (Italian ryegrass, Lolium multiflorum); experiment: Test A preemergence; settings: Lolium multiflorum, pre-emergence, 240 h, preemergence, 0 to 100 scale where 0 is no effect and 100 is complete control, read-out: Ryegrass, Italian plant response rating
In short: as §1

[5] = test system: giant foxtail (Setaria faberii); experiment: Test A preemergence; settings: Setaria faberi, pre-emergence, 240 h, preemergence, 0 to 100 scale where 0 is no effect and 100 is complete control, read-out: Foxtail, Giant plant response rating
In short: as §1

[6] = test system: pigweed (Amaranthus retroflexus); experiment: Test A preemergence; settings: Amaranthus retroflexus, pre-emergence, 240 h, preemergence, 0 to 100 scale where 0 is no effect and 100 is complete control, read-out: Pigweed plant response rating
[7] = test system: barnyardgrass (Echinochloa crus-galli); experiment: Test A postemergence; settings: Echinochloa crus-galli, post-emergence, 240 h, postemergence
In short: as §1

[8] = test system: ragweed (common ragweed, Ambrosia elatior); experiment: Test A postemergence; settings: Ambrosia artemisiifolia, post-emergence, 240 h, postemergence
In short: as §1

Kochia (Kochia scoparia) [9] = experiment: Test A postemergence; settings: Bassia scoparia, post-emergence, 240 h, postemergence
In short: as §1

[10] = test system: Galium (catchweed bedstraw, Galium aparine); experiment: Test A postemergence; settings: Galium, post-emergence, 240 h, postemergence
In short: as §1

corn (Zea mays) = experiment: Test A postemergence; settings: Zea mays, post-emergence, 240 h, postemergence
In short: as §1

[11] = test system: wheat (Triticum aestivum); experiment: Test A postemergence; settings: Triticum aestivum, post-emergence, 240 h, 125 g ai/ha, postemergence, visual injury vs untreated controls after approx. 10 d; 0 = no effect, 100 = complete control; read-out: Wheat plant response rating (0 to 100 scale)
In short: as §1

[12] = test system: giant foxtail (Setaria faberii); experiment: Test A postemergence; settings: Setaria faberi, post-emergence, 240 h, postemergence
In short: as §1

[13] = test system: blackgrass (Alopecurus myosuroides); experiment: Test A postemergence; settings: Alopecurus myosuroides, post-emergence, 240 h, postemergence
In short: as §1

[14] = test system: pigweed (Amaranthus retroflexus); experiment: Test A postemergence; settings: Amaranthus retroflexus, post-emergence, 240 h, postemergence
In short: as §1

[15] = 125 g ai/ha, visual injury rating, approximately 10 d

Q: How did the pest or weed control at 125 g/ha [1, 15] turn out when `O=C1NC[C@H](c2cccc(C(F)(F)F)c2)C1C(=O)Nc1ccccc1CO` (some centres unmarked) [Compound 1244] was run?
A: Its pest or weed control at 125 g/ha is 80%.

Q: And the pest or weed control at 500 g/ha ([1]; 500 g ai/ha)?
A: Its pest or weed control at 500 g/ha is 90%.

Q: What about the pest or weed control at 125 g/ha [2, 15] of the same molecule?
A: The pest or weed control at 125 g/ha was 0%.

Q: And the pest or weed control at 500 g/ha ([2]; 500 g ai/ha)?
A: Its pest or weed control at 500 g/ha is 0%.

Q: And the pest or weed control at 125 g/ha (Kochia (Kochia scoparia) [3]; [15])?
A: Its pest or weed control at 125 g/ha is 0%.

Q: What about the pest or weed control at 500 g/ha (Kochia (Kochia scoparia) [3]; 500 g ai/ha) of the same molecule?
A: Its pest or weed control at 500 g/ha is 0%.

Q: What about the pest or weed control at 125 g/ha [4, 15] of the same molecule?
A: Its pest or weed control at 125 g/ha is 0%.

Q: What about the pest or weed control at 500 g/ha ([4]; 500 g ai/ha) of the same molecule?
A: The pest or weed control at 500 g/ha was 50%.

Q: And the pest or weed control at 125 g/ha [5, 15]?
A: Its pest or weed control at 125 g/ha is 90%.

Q: And the pest or weed control at 500 g/ha ([5]; 500 g ai/ha)?
A: The pest or weed control at 500 g/ha was 90%.

Q: And the pest or weed control at 125 g/ha [6, 15]?
A: The pest or weed control at 125 g/ha was 0%.

Q: What about the pest or weed control at 500 g/ha ([6]; 500 g ai/ha) of the same molecule?
A: Its pest or weed control at 500 g/ha is 0%.

Q: What about the pest or weed control at 125 g/ha ([7]; 125 g ai/ha, visual injury vs untreated controls after approx. 10 d, 0 = no effect, 100 = complete control, read-out: Barnyardgrass plant response rating (0 to 100 scale)) of the same molecule?
A: The pest or weed control at 125 g/ha was 50%.

Q: And the pest or weed control at 500 g/ha ([7]; 500 g ai/ha, 0 to 100 scale, 0 is no effect, 100 is complete control, read-out: Barnyardgrass plant response rating)?
A: The pest or weed control at 500 g/ha was 80%.

Q: What about the pest or weed control at 125 g/ha ([8]; 125 g ai/ha, visual injury vs untreated controls after approx. 10 d, 0 = no effect, 100 = complete control, read-out: Ragweed plant response rating (0 to 100 scale)) of the same molecule?
A: The pest or weed control at 125 g/ha was 0%.

Q: What about the pest or weed control at 500 g/ha ([8]; 500 g ai/ha, 0 to 100 scale, 0 is no effect, 100 is complete control, read-out: Ragweed plant response rating) of the same molecule?
A: The pest or weed control at 500 g/ha was 0%.

Q: What about the pest or weed control at 125 g/ha (Kochia (Kochia scoparia) [9]; 125 g ai/ha, visual injury vs untreated controls after approx. 10 d, 0 = no effect, 100 = complete control, read-out: Kochia plant response rating (0 to 100 scale)) of the same molecule?
A: Its pest or weed control at 125 g/ha is 0%.

Q: What about the pest or weed control at 500 g/ha (Kochia (Kochia scoparia) [9]; 500 g ai/ha, 0 to 100 scale, 0 is no effect, 100 is complete control, read-out: Kochia plant response rating) of the same molecule?
A: Its pest or weed control at 500 g/ha is 0%.

Q: What about the pest or weed control at 125 g/ha ([10]; 125 g ai/ha, visual injury vs untreated controls after approx. 10 d, 0 = no effect, 100 = complete control, read-out: Galium plant response rating (0 to 100 scale)) of the same molecule?
A: Its pest or weed control at 125 g/ha is 0%.

Q: What about the pest or weed control at 500 g/ha ([10]; 500 g ai/ha, 0 to 100 scale, 0 is no effect, 100 is complete control, read-out: Galium plant response rating) of the same molecule?
A: The pest or weed control at 500 g/ha was 20%.

Q: What about the plant injury at 125 g/ha (corn (Zea mays); 125 g ai/ha, visual injury vs untreated controls after approx. 10 d, 0 = no effect, 100 = complete control, read-out: Corn plant response rating (0 to 100 scale)) of the same molecule?
A: The plant injury at 125 g/ha was 0%.

Q: What about the plant injury at 500 g/ha (corn (Zea mays); 500 g ai/ha, 0 to 100 scale, 0 is no effect, 100 is complete control, read-out: Corn plant response rating) of the same molecule?
A: Its plant injury at 500 g/ha is 40%.

Q: What about the plant injury at 125 g/ha [11] of the same molecule?
A: Its plant injury at 125 g/ha is 0%.

Q: What about the pest or weed control at 125 g/ha ([12]; 125 g ai/ha, visual injury vs untreated controls after approx. 10 d, 0 = no effect, 100 = complete control, read-out: Foxtail, Giant plant response rating (0 to 100 scale)) of the same molecule?
A: The pest or weed control at 125 g/ha was 50%.

Q: What about the pest or weed control at 500 g/ha ([12]; 500 g ai/ha, 0 to 100 scale, 0 is no effect, 100 is complete control, read-out: Foxtail, Giant plant response rating) of the same molecule?
A: The pest or weed control at 500 g/ha was 90%.

Q: What about the pest or weed control at 125 g/ha ([13]; 125 g ai/ha, visual injury vs untreated controls after approx. 10 d, 0 = no effect, 100 = complete control, read-out: Blackgrass plant response rating (0 to 100 scale)) of the same molecule?
A: The pest or weed control at 125 g/ha was 0%.

Q: What about the pest or weed control at 500 g/ha ([13]; 500 g ai/ha, 0 to 100 scale, 0 is no effect, 100 is complete control, read-out: Blackgrass plant response rating) of the same molecule?
A: The pest or weed control at 500 g/ha was 50%.

Q: And the pest or weed control at 125 g/ha ([14]; 125 g ai/ha, visual injury vs untreated controls after approx. 10 d, 0 = no effect, 100 = complete control, read-out: Pigweed plant response rating (0 to 100 scale))?
A: Its pest or weed control at 125 g/ha is 0%.

Q: And the pest or weed control at 500 g/ha ([14]; 500 g ai/ha, 0 to 100 scale, 0 is no effect, 100 is complete control, read-out: Pigweed plant response rating)?
A: The pest or weed control at 500 g/ha was 0%.
